# From patent publication EP4501917A1, “3,4-DIHYDROQUINOXALINE-2-CARBOXIMIDE DERIVATIVE COMPOUND AND PHARMACEUTICAL COMPOSITION COMPRISING SAME FOR PREVENTING OR TREATING CANCER DISEASE” (Daegu-Gyeongbuk Medical Innovation Foundation, priority 2022, dated 2023)
# Legend:
# HDAC1 = HDAC1 (Homo sapiens, UniProt Q13547); assay: Selective HDAC inhibition, HDAC Fluorogenic assay kit; details: final concentration 10 µM; HDAC substrate 3 200 µM; positive control (1% DMSO) set to 100
# Experimental: (§1) For analysis, HDAC substrate 3 was diluted in buffer to a concentration of 200 µM and used in HDAC 1, 2, 3, 6, and 10 assays, HDAC substrate 2A was diluted in buffer to a concentration of 200 µM and used in HDAC 4, 7, 9, and 11 assays, HDAC substrate 2A was diluted in buffer to a concentration of 20 µM and used in HDAC 8 assays. For the HDAC 11 assay, a dedicated buffer included in the kit was used separately, and the same buffer was used for the remaining assays. The compound of the Example was diluted to 1 mM (1% DMSO concentration) using DMSO to obtain a final concentration of 10 µM, and prepared by diluting 1/10 with assay buffer. In a 96-well black round-bottom plate, 5 µL of the diluted compound of the Example, 5 µL of the diluted HDAC substrate, 5 µL of BSA (1 mg/ml), 5 µL of the HDAC enzyme diluted to the appropriate concentration, and 30 µL of assay buffer were added, and the enzyme reaction was performed at 37°C for 30 minutes. […] Afterwards, 50 µL of 2X HDAC developer was added to each well. After reacting for 15 minutes at room temperature, the fluorescence values at excitation wavelengths of 350-380 nm and emission wavelengths of 440-460 nm were measured using a microplate reader (Synergy Neo).
# HDAC9 = HDAC9 (Homo sapiens, UniProt Q9UKV0); assay: as above; details: read-out: HDAC9 enzyme activity (%)
# Experimental: as §1
# HDAC8 [1] = target: T1, HDAC8 (Homo sapiens, UniProt Q9BY41); assay: HDAC8 inhibitory activity analysis (in vitro), RFU analysis, HDAC Fluorogenic assay kit; type: biochemical; details: compound final concentration 10 µM; HDAC substrate 2A 20 µM; positive control (1% DMSO) set to 100, lower = more inhibition
# T1 construct: purchased BPS bioscience
# T1 sequence (Q9BY41 1-377): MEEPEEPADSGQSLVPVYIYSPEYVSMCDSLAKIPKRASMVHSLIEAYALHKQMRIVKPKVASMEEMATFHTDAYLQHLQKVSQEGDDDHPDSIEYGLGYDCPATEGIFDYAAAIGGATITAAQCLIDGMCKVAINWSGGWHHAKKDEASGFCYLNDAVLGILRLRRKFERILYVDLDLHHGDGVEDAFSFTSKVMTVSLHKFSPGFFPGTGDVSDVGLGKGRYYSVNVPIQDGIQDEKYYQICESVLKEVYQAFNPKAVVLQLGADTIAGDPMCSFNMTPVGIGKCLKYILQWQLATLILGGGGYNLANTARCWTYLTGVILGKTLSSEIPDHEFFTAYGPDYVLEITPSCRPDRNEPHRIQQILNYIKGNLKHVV
# Experimental: The compound of the Example was diluted to 1 mM (1% DMSO concentration) using DMSO to obtain a final concentration of 10 µM, and prepared by diluting 1/10 with assay buffer. In a 96-well black round-bottom plate, 5 µL of the diluted compound of the Example, 5 µL of the diluted HDAC substrate 2A, 5 µL of BSA (1 mg/mL), 5 µL of the HDAC8 enzyme diluted to an appropriate concentration, and 30 µL of assay buffer were added, and the enzyme reaction was performed at 37°C for 30 minutes. […] Afterwards, 50 µL of 2X HDAC developer was added to each well. After reacting for 15 minutes at room temperature, the fluorescence values at excitation wavelengths of 350-380 nm and emission wavelengths of 440-460 nm were measured using a microplate reader (Synergy Neo).
# HDAC11 = target: T2, HDAC11 (Homo sapiens, UniProt Q96DB2); assay: Selective HDAC inhibition, HDAC Fluorogenic assay kit; details: read-out: HDAC11 enzyme activity (%)
# T2 sequence (Q96DB2 1-347): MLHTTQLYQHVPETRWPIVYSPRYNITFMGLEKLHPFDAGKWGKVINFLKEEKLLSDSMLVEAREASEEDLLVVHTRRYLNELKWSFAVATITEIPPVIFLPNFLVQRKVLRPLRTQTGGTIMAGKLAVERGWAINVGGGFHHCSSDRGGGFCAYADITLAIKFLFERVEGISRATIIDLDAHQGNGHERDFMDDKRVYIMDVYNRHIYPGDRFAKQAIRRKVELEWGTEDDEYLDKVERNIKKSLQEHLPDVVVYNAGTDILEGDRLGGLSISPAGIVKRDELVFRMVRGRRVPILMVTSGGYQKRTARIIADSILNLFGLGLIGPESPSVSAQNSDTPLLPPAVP
# Experimental: as §1
# HDAC4 = HDAC4 (Homo sapiens, UniProt P56524); assay: as above; details: read-out: HDAC4 enzyme activity (%)
# Experimental: as §1
# HDAC2 = HDAC2 (Homo sapiens, UniProt Q92769); assay: as above; details: final concentration 10 µM; HDAC substrate 3 200 µM; positive control (1% DMSO) set to 100
# Experimental: as §1
# HDAC8 [2] = target: T1, HDAC8; assay: as above; type: biochemical; details: final concentration 10 µM; HDAC substrate 2A 20 µM; positive control (1% DMSO) set to 100; read-out: HDAC8 enzyme activity (%)
# Experimental: as §1
# HDAC10 = target: T3, HDAC10 (Homo sapiens, UniProt Q969S8); assay: as above; details: final concentration 10 µM; HDAC substrate 3 200 µM; positive control (1% DMSO) set to 100
# T3 sequence (Q969S8 1-669): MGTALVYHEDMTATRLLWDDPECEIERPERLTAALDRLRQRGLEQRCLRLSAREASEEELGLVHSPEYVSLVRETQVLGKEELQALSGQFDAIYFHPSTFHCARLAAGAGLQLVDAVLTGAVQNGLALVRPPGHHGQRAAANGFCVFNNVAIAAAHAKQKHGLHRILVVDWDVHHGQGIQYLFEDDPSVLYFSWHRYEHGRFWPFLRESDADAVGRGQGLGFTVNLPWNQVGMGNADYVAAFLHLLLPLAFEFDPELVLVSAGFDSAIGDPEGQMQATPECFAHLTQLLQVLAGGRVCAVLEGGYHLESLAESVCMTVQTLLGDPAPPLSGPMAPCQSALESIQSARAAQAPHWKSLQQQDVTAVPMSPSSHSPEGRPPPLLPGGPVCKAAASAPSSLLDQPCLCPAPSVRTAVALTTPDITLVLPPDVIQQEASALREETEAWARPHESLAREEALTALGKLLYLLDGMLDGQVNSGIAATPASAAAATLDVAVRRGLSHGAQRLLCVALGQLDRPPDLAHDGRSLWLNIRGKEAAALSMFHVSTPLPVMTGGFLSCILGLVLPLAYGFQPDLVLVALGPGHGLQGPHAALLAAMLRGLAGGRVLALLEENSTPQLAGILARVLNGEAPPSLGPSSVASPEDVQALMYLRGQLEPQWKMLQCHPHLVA
# Experimental: as §1
# HDAC6 = target: T4, HDAC6 (Homo sapiens, UniProt Q9UBN7); assay: as above; details: final concentration 10 µM; HDAC substrate 3 200 µM; positive control (1% DMSO) set to 100
# T4 sequence (Q9UBN7 1-1215): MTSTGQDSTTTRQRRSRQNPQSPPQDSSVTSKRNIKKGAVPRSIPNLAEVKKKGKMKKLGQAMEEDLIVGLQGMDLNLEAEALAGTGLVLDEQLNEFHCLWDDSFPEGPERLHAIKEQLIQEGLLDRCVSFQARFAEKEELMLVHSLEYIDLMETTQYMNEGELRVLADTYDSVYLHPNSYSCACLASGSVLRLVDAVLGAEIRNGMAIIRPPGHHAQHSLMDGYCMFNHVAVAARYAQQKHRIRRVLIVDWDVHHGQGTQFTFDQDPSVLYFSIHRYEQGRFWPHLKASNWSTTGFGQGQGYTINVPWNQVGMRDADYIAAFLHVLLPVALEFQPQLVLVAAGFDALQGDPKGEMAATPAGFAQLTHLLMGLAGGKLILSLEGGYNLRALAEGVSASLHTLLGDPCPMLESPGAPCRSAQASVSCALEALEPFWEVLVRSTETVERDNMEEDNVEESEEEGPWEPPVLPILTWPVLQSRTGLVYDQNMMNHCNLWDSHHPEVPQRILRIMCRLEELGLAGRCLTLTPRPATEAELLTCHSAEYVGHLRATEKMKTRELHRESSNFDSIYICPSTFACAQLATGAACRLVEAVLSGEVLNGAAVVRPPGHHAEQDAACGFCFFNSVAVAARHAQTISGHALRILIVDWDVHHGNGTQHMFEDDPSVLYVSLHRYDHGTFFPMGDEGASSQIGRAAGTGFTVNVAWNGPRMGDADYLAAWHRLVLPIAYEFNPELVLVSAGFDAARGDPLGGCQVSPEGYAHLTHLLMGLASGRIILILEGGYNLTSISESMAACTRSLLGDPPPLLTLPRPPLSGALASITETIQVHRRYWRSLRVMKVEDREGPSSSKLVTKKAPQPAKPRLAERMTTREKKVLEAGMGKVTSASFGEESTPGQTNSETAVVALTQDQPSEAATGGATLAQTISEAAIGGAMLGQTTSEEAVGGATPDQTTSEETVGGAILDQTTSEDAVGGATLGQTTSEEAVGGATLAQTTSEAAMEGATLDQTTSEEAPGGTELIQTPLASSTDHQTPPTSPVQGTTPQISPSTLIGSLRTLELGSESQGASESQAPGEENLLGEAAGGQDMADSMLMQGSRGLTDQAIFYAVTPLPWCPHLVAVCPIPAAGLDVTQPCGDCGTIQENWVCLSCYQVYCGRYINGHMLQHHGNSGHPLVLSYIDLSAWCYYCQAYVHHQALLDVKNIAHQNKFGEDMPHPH
# Experimental: as §1
# HDAC9, sequence (Q9UKV0 whole entry): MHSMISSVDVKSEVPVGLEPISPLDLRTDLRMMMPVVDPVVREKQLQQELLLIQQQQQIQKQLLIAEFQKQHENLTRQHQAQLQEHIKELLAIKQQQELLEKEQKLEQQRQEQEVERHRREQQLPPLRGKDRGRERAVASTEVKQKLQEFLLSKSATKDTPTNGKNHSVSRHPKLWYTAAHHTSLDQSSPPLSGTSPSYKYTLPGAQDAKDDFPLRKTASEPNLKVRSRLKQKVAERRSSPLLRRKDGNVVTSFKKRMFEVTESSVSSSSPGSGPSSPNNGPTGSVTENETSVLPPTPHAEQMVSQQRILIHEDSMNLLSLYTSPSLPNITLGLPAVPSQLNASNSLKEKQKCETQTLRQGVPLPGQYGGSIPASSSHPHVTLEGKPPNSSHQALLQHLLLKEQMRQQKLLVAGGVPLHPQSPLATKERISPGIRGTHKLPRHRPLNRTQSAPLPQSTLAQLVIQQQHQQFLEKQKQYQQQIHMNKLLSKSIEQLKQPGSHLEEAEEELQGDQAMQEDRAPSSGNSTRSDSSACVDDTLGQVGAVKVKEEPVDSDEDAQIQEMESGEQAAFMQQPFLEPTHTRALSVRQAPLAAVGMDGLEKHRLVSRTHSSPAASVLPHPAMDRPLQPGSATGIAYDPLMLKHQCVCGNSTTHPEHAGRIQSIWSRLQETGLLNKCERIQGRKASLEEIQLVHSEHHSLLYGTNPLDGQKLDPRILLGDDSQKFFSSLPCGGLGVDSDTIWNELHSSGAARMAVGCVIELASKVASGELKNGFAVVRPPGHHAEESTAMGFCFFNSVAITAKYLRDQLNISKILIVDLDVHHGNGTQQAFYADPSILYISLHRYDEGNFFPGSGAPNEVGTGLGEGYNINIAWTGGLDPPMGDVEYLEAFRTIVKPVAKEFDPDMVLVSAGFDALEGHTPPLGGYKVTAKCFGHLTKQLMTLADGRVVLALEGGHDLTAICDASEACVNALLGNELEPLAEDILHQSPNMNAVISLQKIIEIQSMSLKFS
# HDAC4, sequence (P56524 whole entry): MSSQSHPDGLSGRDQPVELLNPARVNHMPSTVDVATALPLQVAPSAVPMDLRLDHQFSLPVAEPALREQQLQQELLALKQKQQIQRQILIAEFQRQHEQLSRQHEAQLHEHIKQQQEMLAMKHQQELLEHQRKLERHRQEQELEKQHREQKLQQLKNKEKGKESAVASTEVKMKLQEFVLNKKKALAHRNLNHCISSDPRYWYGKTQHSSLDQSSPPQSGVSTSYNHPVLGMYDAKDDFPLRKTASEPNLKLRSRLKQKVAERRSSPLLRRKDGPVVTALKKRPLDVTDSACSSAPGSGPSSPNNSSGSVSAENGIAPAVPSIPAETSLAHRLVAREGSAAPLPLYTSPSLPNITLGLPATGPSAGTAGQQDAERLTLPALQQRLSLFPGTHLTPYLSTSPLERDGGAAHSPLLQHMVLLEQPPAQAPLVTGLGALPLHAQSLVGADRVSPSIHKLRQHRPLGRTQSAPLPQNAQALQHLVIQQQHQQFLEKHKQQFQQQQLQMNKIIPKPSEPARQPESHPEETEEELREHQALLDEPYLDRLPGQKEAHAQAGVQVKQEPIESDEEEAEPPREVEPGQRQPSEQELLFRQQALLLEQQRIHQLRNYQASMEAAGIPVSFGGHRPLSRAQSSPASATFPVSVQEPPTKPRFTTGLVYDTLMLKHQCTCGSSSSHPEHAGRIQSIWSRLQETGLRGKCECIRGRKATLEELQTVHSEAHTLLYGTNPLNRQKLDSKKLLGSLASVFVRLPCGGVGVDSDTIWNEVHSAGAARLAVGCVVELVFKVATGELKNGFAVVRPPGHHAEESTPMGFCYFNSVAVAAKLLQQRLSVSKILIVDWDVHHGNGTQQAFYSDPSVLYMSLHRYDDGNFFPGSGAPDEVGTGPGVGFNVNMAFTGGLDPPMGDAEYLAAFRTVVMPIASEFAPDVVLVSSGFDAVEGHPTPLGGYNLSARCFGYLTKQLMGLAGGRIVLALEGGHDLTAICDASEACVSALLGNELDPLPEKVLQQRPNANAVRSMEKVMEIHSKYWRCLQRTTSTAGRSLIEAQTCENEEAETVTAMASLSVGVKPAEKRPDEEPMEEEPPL
# HDAC2, sequence (Q92769 whole entry): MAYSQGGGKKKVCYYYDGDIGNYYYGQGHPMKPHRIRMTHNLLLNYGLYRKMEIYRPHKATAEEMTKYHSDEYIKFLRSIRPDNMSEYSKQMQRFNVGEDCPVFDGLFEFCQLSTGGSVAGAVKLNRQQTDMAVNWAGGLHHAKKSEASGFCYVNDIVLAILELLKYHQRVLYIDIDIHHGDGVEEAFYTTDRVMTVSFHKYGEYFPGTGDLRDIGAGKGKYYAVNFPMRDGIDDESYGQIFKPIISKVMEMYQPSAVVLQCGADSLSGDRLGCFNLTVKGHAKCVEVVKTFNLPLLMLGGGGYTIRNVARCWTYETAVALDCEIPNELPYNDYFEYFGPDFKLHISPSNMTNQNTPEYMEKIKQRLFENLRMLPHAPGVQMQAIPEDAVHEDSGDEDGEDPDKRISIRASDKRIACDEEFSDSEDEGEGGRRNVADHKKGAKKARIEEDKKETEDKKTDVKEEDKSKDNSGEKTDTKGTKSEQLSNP
# HDAC1, sequence (Q13547 whole entry): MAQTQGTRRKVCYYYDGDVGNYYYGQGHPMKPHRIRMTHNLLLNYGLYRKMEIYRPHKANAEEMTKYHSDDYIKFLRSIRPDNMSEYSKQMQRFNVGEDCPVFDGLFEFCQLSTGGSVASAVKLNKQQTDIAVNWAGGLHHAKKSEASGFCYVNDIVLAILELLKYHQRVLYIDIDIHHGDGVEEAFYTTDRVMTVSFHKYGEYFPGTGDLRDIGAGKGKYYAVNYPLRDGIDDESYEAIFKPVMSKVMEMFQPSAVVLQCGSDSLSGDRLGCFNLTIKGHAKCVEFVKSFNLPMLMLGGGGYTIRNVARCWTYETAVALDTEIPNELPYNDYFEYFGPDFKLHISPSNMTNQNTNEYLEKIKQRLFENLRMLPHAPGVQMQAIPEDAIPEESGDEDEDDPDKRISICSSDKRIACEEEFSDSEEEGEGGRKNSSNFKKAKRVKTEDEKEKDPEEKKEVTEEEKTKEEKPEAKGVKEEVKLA
structure (smiles),measurement,setting,value
"CC(/C=C/C(=O)NO)=C\[C@@H](C)C(=O)c1ccc(N(C)C)cc1 [TSA, Trichostatin A, reference compound]",HDAC1 enzyme activity (%),HDAC1,1.22%
same,remaining activity at 10 µM,HDAC9,21.5%
same,RFU (%),HDAC8 [1],13.83%
same,remaining activity at 10 µM,HDAC11,59.1%
same,remaining activity at 10 µM,HDAC4,18.8%
same,HDAC2 enzyme activity (%),HDAC2,0.70%
same,remaining activity at 10 µM,HDAC8 [2],11.1%
same,HDAC10 enzyme activity (%),HDAC10,1.21%
same,HDAC6 enzyme activity (%),HDAC6,1.11%
